The values that follow come from PMC10161675, “Study on the absolute configuration and biological activity of rotenoids from the leaves and twigs of Millettia pyrrhocarpa Mattapha, Forest & Hawkins, sp. Nov” (BMC Complementary Medicine and Therapies, 2023).

In data set [1] the test system is E. coli O157: H7 DMST 12743. As to the kind of experiment: Antibacterial activity (MIC/MBC). The class given is cell-based. As to conditions: Escherichia coli; for MBC: read-out: Concentration of MBC; for MIC: read-out: Concentration of MIC. The method, then:
(§1) The study on in vitro antibacterial activity was carried out against nine strains (S. aureus ATCC 25923 DMST 8840, E. aerogenes ATCC13048 DMST 8841, E. coli O157: H7 DMST 12743, E. coli Enterotoxigenic, ETEC DMST 30543, E. coli Enteropathogenic, EPEC DMST 30546, S. typhimurium ATCC 13311 DMST 562, S. flexneri DMST 4423, P. mirabilis DMST 8212, and V. cholera nonO1/nonO139 DMST 2873).

Data set [2] concerns E. coli Enteropathogenic, EPEC DMST 30546. As to the kind of experiment: microbe, parasite or virus in culture. The class given is cell-based. As to conditions: Escherichia coli; for MBC: read-out: Concentration of MBC. On the procedure:
as §1

Data set [3] deals with S. typhimurium ATCC 13311 DMST 562. As to the kind of experiment: microbe, parasite or virus in culture. The class given is cell-based. As to conditions: Salmonella enterica; for MBC: read-out: Concentration of MBC; for MIC: read-out: Concentration of MIC. The method, then: as §1
In the next data set the test system is P. mirabilis DMST 8212. As to the kind of experiment: microbe, parasite or virus in culture. The conditions noted are these: Proteus mirabilis; for MBC: DMST8212, read-out: Concentration of MBC; for MIC: DMST8212, read-out: Concentration of MIC. In kind it is cell-based. The method, then:
as §1

Data set [4] deals with E. aerogenes ATCC13048 DMST 8841. As to the kind of experiment: microbe, parasite or virus in culture. The class given is cell-based. As to conditions: Klebsiella aerogenes; for MBC: read-out: Concentration of MBC; for MIC: read-out: Concentration of MIC. On the procedure: as §1
For another data set, the system named is S. flexneri DMST 4423. As to the kind of experiment: microbe, parasite or virus in culture. The class given is cell-based. As to conditions: Shigella flexneri; for MBC: DMST4423, read-out: Concentration of MBC; for MIC: DMST4423, read-out: Concentration of MIC. On the procedure: as §1
Data set [5] relates to S. aureus ATCC 25923 DMST 8840. The data set can be described thus: microbe, parasite or virus in culture. The class given is cell-based. The conditions noted are these: Staphylococcus aureus; for MBC: ATCC25923, read-out: Concentration of MBC; for MIC: ATCC25923, read-out: Concentration of MIC. The method, then:
as §1

Data set [6] has as its system E. coli Enterotoxigenic, ETEC DMST 30543. The data set can be described thus: microbe, parasite or virus in culture. In kind it is cell-based. As to conditions: Escherichia coli; for MBC: read-out: Concentration of MBC. The method, then:
as §1

The subject of data set [7] is V. cholera nonO1/nonO139 DMST 2873. As to the kind of experiment: Antibacterial activity (MIC/MBC). The class given is cell-based, V. cholerae. The conditions noted are these: Vibrio cholerae; for MBC: read-out: Concentration of MBC; for MIC: read-out: Concentration of MIC. On the procedure:
as §1

The target in another data set is T1, HIV-1 RT (Human immunodeficiency virus type 1 group M subtype B, UniProt P04585).
T1 construct: For determination of IC50 in the HIV-1 RT assay
As to the kind of experiment: Anti-HIV1-RT assay. The class given is biochemical. As to conditions: read-out: Anti-HIV-1 RT (% Inhibition). The method, then:
(§2) Anti-HIV1-RT assays of the crude extracts and isolated compounds were evaluated according to the standard methods described in previous literature. Cell-based assays for anti-HIV-1 RT of the crude extracts and isolated compounds were evaluated according to the standard methods described in previous literature

The test system of data set [8] is ΔTat/RevMC99 virus in 1A2 cells. As to the kind of experiment: Anti-syncytium (MC99 + 1A2) cell-based assay for anti-HIV-1. The conditions noted are these: Human immunodeficiency virus 1, 1A2, read-out: Anti-syncytium (MC99+1A2) EC50. On the procedure: as §2
Fig. 4 Anti-syncytium MC99 + 1A2 of crude extracts and pure compounds from leaves and twigs of M. Pyrrhocarpa. ^bAnti-syncytium (MC99 + 1A2) EC50 = dose of compound that reduced 50% syncytium formation by ΔTat/RevMC99 virus in 1A2 cells.

Data set [9] concerns Hep G2 (Human hepatocellular carcinoma). The data set can be described thus: Cytotoxicity assay. As to conditions: listed as 6aS, 12aS, 12S-elliptinol (1). In kind it is cell-based. The source says:
(§3) Cells line materials KKU-M213 (human cholangiocarcinoma) cells were kindly provided by Dr. Banchob Sripa from Liver Fluke and Cholangiocarcinoma Research Center, Department of Pathology, Faculty of Medicine, Khon Kean University. MMNK1 (human cholangiocyte) cells were obtained from the Japanese Collection of Research Bioresources Cell Bank (JCRB, Osaka, Japan). FaDu (human hypopharyngeal carcinoma), HT29 (human colorectal adenocarcinoma), MDA-MB-231 (human mammary gland/breast adenocarcinoma), SH-SY5Y (human neuroblastoma), A549 (human lung carcinoma), and HepG2 (human hepatocellular carcinoma) cell lines were obtained from the American Type Culture Collection (ATCC, Manassas, VA, USA).
(§4) Cytotoxicity assays of the crude extracts and isolated compounds were evaluated according to the standard methods described in previous literature.

Data set [10] relates to A 549 (Human lung adenocarcinoma). As to the kind of experiment: Cytotoxicity assay. The conditions noted are these: A549. In kind it is cell-based.
Source text: as §3, §4

The structures appear in SMILES notation. Values after ≈ are worked out from the molar mass of the structure shown.

For the compound `O=C(N[C@H](CO)[C@H](O)c1ccc([N+](=O)[O-])cc1)C(Cl)Cl` [Chloramphenicol, reference compound], the MBC in data set [1] is 125 µg/mL (≈ 0.387 mM); in data set [3], 125 µg/mL (≈ 0.387 mM); in the data set with P. mirabilis DMST 8212, 31.2 µg/mL (≈ 0.0966 mM); in data set [4], 125 µg/mL (≈ 0.387 mM); with S. flexneri DMST 4423, 125 µg/mL (≈ 0.387 mM); in data set [5] it was 125 µg/mL (≈ 0.387 mM). In [7], the MBC is 125 µg/mL (≈ 0.387 mM). Besides, the MIC in [1] is below 30 µg/mL; in [2] (read-out: Concentration of MIC), below 30 µg/mL; in [3], below 35 µg/mL; with P. mirabilis DMST 8212, below 30 µg/mL; in data set [4], below 30 µg/mL; in the data set on S. flexneri DMST 4423, below 30 µg/mL. Besides, the MIC in data set [5], in data set [6] (read-out: Concentration of MIC) and in [7] was below 30 µg/mL throughout.
Regarding `COc1cc2c(cc1OC)[C@H]1[C@H](O)c3ccc4occc4c3O[C@@H]1CO2` [Compound 1, 6aS, 12aS, 12S-elliptinol], the MBC (in data set [1]; in data set [2]; in data set [3]; in the data set with P. mirabilis DMST 8212; in data set [4]; with S. flexneri DMST 4423) was above 3000 µg/mL each time. For the same compound, the MBC in data set [5], in data set [6] and in [7] was above 3000 µg/mL throughout. For the same compound, the MIC (in [1]; in data set [3]; with P. mirabilis DMST 8212; in [4]; in the data set with S. flexneri DMST 4423; in data set [5]) was 3000 µg/mL (≈ 8.47 mM) in each case. For the same compound, in [7], the MIC worked out at 3000 µg/mL (≈ 8.47 mM). Further, the inhibition at 200 µg/mL at HIV-1 RT came out at 0.03%. Also, the EC50 in [8] is 4.48 µM. Besides, the “cytotoxicity ED50” value in data set [9] is 3.97 µg/mL; in data set [10], 2.27 µg/mL.
`COc1ccc2c(c1)O[C@@H]1COc3cc(OC)c(OC)cc3[C@H]1[C@@H]2O` [Compound 2, 6aS, 12aS, 12S-munduserol]: the melting point fell in the range of 240 to 241 °C. Further, in data set [1], the MBC was above 3000 µg/mL and the MIC worked out at 3000 µg/mL (≈ 8.71 mM). Moreover, the MBC in [2] is above 3000 µg/mL. For the same compound, in data set [3], the MBC was above 3000 µg/mL and the MIC was 3000 µg/mL (≈ 8.71 mM). In the data set on P. mirabilis DMST 8212, the MBC was above 3000 µg/mL and the MIC was found to be 3000 µg/mL (≈ 8.71 mM). Moreover, in data set [4], the MBC is above 3000 µg/mL and the MIC was 3000 µg/mL (≈ 8.71 mM). Further, in the data set on S. flexneri DMST 4423, the MBC was above 3000 µg/mL and the MIC was determined as 3000 µg/mL (≈ 8.71 mM). For the same compound, in [5], the MBC was above 3000 µg/mL and the MIC was 3000 µg/mL (≈ 8.71 mM). In addition, in [6], the MBC is above 3000 µg/mL. For the same compound, on HIV-1 RT, the inhibition at 200 µg/mL stood at 8.98%. Moreover, the EC50 in [8] worked out at 4.99 µM. Also, in [7], the MBC was above 3000 µg/mL and the MIC is 3000 µg/mL (≈ 8.71 mM).
Compound `COc1ccc2c(=O)c3c(oc2c1)COc1cc(OC)c(OC)cc1-3` [Compound 3, dehydromunduserone] displayed a melting point of 202 to 204 °C. Also, in data set [1], the MBC is above 3000 µg/mL and the MIC came to 3000 µg/mL (≈ 8.81 mM). Besides, the MBC in data set [2] is above 3000 µg/mL. In [3], the MBC was above 3000 µg/mL and the MIC worked out at 3000 µg/mL (≈ 8.81 mM). Further, in the data set with P. mirabilis DMST 8212, the MBC was above 3000 µg/mL and the MIC came out at 3000 µg/mL (≈ 8.81 mM). In data set [4], the MBC is above 3000 µg/mL and the MIC was 3000 µg/mL (≈ 8.81 mM). Moreover, in the data set with S. flexneri DMST 4423, the MBC was above 3000 µg/mL and the MIC was 3000 µg/mL (≈ 8.81 mM). Further, in data set [5], the MBC is above 3000 µg/mL and the MIC was 3000 µg/mL (≈ 8.81 mM). Besides, in [6], the MBC is above 3000 µg/mL. In addition, the inhibition at 200 µg/mL on HIV-1 RT is 0%. Further, the 50% effective concentration (EC50) in [8] is 91 µM. Further, in [7], the MBC was above 3000 µg/mL and the MIC is 3000 µg/mL (≈ 8.81 mM).
